# Experimental data taken from paper PMC7031696 (Cell chemical biology, 2019).
# Read-outs that look alike come from different tables or passages of the source.
# How the values were obtained:
# [1] = system: asynchronous 3D7-A10 parasite cultures; experiment: Standard 72-h exposure asexual blood stage susceptibility assay (IC50^72h); type: cell-based, Plasmodium falciparum; settings: Plasmodium falciparum, 3D7, 72 h, read-out: Overall (72hr assay) Mean IC50 (IC50^72h)
# [2] = system: Plasmodium falciparum 3D7-A10 parasites; experiment: Stage specificity assay (8-h exposure of synchronized stages, IC50^8h); type: cell-based; settings: for IC50: Plasmodium falciparum
# [3] = system: 3D7-MR4 trophozoite parasite-infected RBCs; experiment: Metabolomic profiling (hydrophilic metabolite changes, UHPLC-MS); type: cell-based, Plasmodium falciparum
smiles,measurement,setting,value
FC(F)(F)c1ccc(Nc2cc3[nH]c(-c4cccc(C(F)(F)F)c4)nc3cn2)nc1 [MMV675939],IC50,[1],30.8 nM
same,Ratio lowest IC50 8hr/IC50 72hr,[2]; 3D7-A10,2.0
same,IC50,"[2]; 3D7, read-out: Early rings Mean IC50 (IC50^8h), 8-h exposure 0–8 hr, 3D7-A10, survival at 60 h",1170 nM
same,IC50,"[2]; 3D7, read-out: Early trophozoites Mean IC50 (IC50^8h), 8-h exposure 16–24 hr, 3D7-A10, survival at 60 h",62.9 nM
same,IC50,"[2]; 3D7, read-out: Late rings Mean IC50 (IC50^8h), 8-h exposure 8–16 hr, 3D7-A10, survival at 60 h",268 nM
same,IC50,"[2]; 3D7, read-out: Late trophozoites Mean IC50 (IC50^8h), 8-h exposure 24–32 hr, 3D7-A10, survival at 60 h",146 nM
same,IC50,"[2]; 3D7, read-out: Schizonts Mean IC50 (IC50^8h), 8-h exposure 32–40 hr, 3D7-A10, survival at 60 h",1650 nM
same,IC50^8h relative to IC50^72h value,[2]; most susceptible stages,2 fold
same,Stage of peak activity (Figure 6),[2]; period when the parasite was most susceptible (lowest IC50^8h),early and late trophozoites
same,Peak Activity (Table S1),[2]; stage(s) with the lowest IC50^8h,Trophs
same,changes within the set of metabolites detected (low fold change group),"[3]; 10 × IC50^72h, 2.5 hr, trophozoites",did not induce major changes
same,Log2(fold changes) 3-phosphoglycerate,"[3]; metabolite 3-phosphoglycerate, log2 fold change",-0.0740
same,Log2(fold changes) 4-Pyridoxic acid,"[3]; metabolite 4-Pyridoxic acid, log2 fold change",0.0934
same,Log2(fold changes) 4-aminobutyrate,"[3]; metabolite 4-aminobutyrate, log2 fold change",-0.0838
same,Log2(fold changes) 4-phosphopantetheine,"[3]; metabolite 4-phosphopantetheine, log2 fold change",0.0000
same,Log2(fold changes) 4-phosphopantothenate,"[3]; metabolite 4-phosphopantothenate, log2 fold change",-0.1644
same,Log2(fold changes) 5-aminopentanoic acid,"[3]; metabolite 5-aminopentanoic acid, log2 fold change",0.0000
same,Log2(fold changes) 5-methyl-THF,"[3]; metabolite 5-methyl-THF, log2 fold change",0.0000
same,Log2(fold changes) 5-phosphoribosyl-1-pyrophosphate,"[3]; metabolite 5-phosphoribosyl-1-pyrophosphate, log2 fold change",0.0000
same,Log2(fold changes) 6-phospho-D-gluconate,"[3]; metabolite 6-phospho-D-gluconate, log2 fold change",-0.0601
same,Log2(fold change) HVDD,[3]; metabolite HVDD,0.0907
same,Log2(fold change) Hydroxyisocaproic acid,[3]; metabolite Hydroxyisocaproic acid,0.0000
same,Log2(fold change) IDP,[3]; metabolite IDP,0.0000
same,Log2(fold change) IMP,[3]; metabolite IMP,-0.0368
same,Log2(fold change) Inositol,[3]; metabolite Inositol,0.0000
same,Log2(fold change) Isopentyl-PP,[3]; metabolite Isopentyl-PP,-0.3198
same,Log2(fold change) L-arginino-succinate,[3]; metabolite L-arginino-succinate,0.0258
same,Log2(fold change) LD,[3]; metabolite LD,0.2379
same,Log2(fold change) Myristoyl/tetradecanoyl-CoA,[3]; metabolite Myristoyl/tetradecanoyl-CoA,0.0000
same,Log2(fold change) N-Acetyl-L-alanine,[3]; metabolite N-Acetyl-L-alanine,0.0194
same,Log2(fold change) N-acetyl-L-ornithine,[3]; metabolite N-acetyl-L-ornithine,-0.1313
same,Log2(fold change) N-acetyl-glucosamine-1/6-phosphate,[3]; metabolite N-acetyl-glucosamine-1/6-phosphate,-0.1343
same,Log2(fold change) N-acetyl-glutamate,[3]; metabolite N-acetyl-glutamate,-0.1472
same,Log2(fold change) N-acetyl-glutamine,[3]; metabolite N-acetyl-glutamine,0.0192
same,Log2(fold change) N-carbamoyl-L-aspartate,[3]; metabolite N-carbamoyl-L-aspartate,-0.1451
same,Log2(fold change) NAD+,[3]; metabolite NAD+,-0.0175
same,Log2(fold change) NADH,[3]; metabolite NADH,-0.2763
same,Log2(fold change) NADP+,[3]; metabolite NADP+,0.0809
same,Log2(fold change) NADPH,[3]; metabolite NADPH,-0.4301
same,Log2(fold change) O-acetyl-L-serine,[3]; metabolite O-acetyl-L-serine,-0.0735
same,Log2(fold change) Octoluse 8/1P,[3]; metabolite Octoluse 8/1P,-0.1460
same,Log2(fold change) Octoluse Bisphosphate,[3]; metabolite Octoluse Bisphosphate,-0.0903
same,Log2(fold change) PD,[3]; metabolite PD,-0.0797
same,Log2(fold change) PE,[3]; metabolite PE,-0.0211
same,Log2(fold change) PEE,[3]; metabolite PEE,0.0917
same,Log2(fold change) PEEK,[3]; metabolite PEEK,0.1721
same,Log2(fold change) PVNF,[3]; metabolite PVNF,0.1648
same,Log2(fold change) Pyroglutamic acid,[3]; metabolite Pyroglutamic acid,-0.1915
same,Log2(fold change) Pyrophosphate,[3]; metabolite Pyrophosphate,0.0000
same,Log2(fold change) Ribose-5-phosphate,[3]; metabolite Ribose-5-phosphate,-0.1384
same,Log2(fold change) S-adenosyl-L-homocysteine,[3]; metabolite S-adenosyl-L-homocysteine,0.0407
same,Log2(fold change) S-adenosyl-L-methioninamine,[3]; metabolite S-adenosyl-L-methioninamine,-0.3534
same,Log2(fold change) S-adenosyl-L-methionine,[3]; metabolite S-adenosyl-L-methionine,0.0000
same,Log2(fold change) S-methyl-5'-thioadenosine,[3]; metabolite S-methyl-5'-thioadenosine,0.0820
same,Log2(fold change) SD,[3]; metabolite SD,-0.1003
same,Log2(fold change) SDL,[3]; metabolite SDL,0.0000
same,Log2(fold change) SID,[3]; metabolite SID,0.1202
same,Log2(fold change) Sedoheptulose bisphosphate,[3]; metabolite Sedoheptulose bisphosphate,-0.2322
same,Log2(fold change) Thiamine pyrophosphate,[3]; metabolite Thiamine pyrophosphate,0.0281
same,Log2(fold changes) UDP-D-glucose,"[3]; metabolite UDP-D-glucose, log2 fold change",-0.0394
same,Log2(fold changes) UDP-D-glucuronate,"[3]; metabolite UDP-D-glucuronate, log2 fold change",-0.0296
same,Log2(fold changes) UDP-N-acetyl-glucosamine,"[3]; metabolite UDP-N-acetyl-glucosamine, log2 fold change",-0.1021
same,Log2(fold changes) UDP,"[3]; metabolite UDP, log2 fold change",-0.2552
same,Log2(fold changes) UMP,"[3]; metabolite UMP, log2 fold change",-0.1084
same,Log2(fold changes) UTP,"[3]; metabolite UTP, log2 fold change",0.0000
same,Log2(fold change) hydroxyphenylpyruvate,[3]; metabolite hydroxyphenylpyruvate,0.0000
same,Log2(fold change) hydroxyproline/Aminolevulinate,[3]; metabolite hydroxyproline/Aminolevulinate,-0.1121
same,Log2(fold change) hypoxanthine,[3]; metabolite hypoxanthine,-0.1075
same,Log2(fold change) indole,[3]; metabolite indole,0.0000
same,Log2(fold change) inosine,[3]; metabolite inosine,0.0076
same,Log2(fold change) isoleucine,[3]; metabolite isoleucine,0.0000
same,Log2(fold change) lactate,[3]; metabolite lactate,-0.1204
same,Log2(fold change) leucine,[3]; metabolite leucine,0.0000
same,Log2(fold change) lysine,[3]; metabolite lysine,-0.3554
same,Log2(fold change) malate,[3]; metabolite malate,-0.1053
same,Log2(fold change) maleic acid,[3]; metabolite maleic acid,-0.1158
same,Log2(fold change) methionine,[3]; metabolite methionine,-0.0422
same,Log2(fold change) myo-inositol,[3]; metabolite myo-inositol,-0.1497
same,Log2(fold change) nicotinamide mononucleotide,[3]; metabolite nicotinamide mononucleotide,0.0424
same,Log2(fold change) nicotinate,[3]; metabolite nicotinate,-0.2143
same,Log2(fold change) ornithine,[3]; metabolite ornithine,0.2780
same,Log2(fold change) orotate,[3]; metabolite orotate,-0.3359
same,Log2(fold change) orotidine-5'-phosphate,[3]; metabolite orotidine-5'-phosphate,-0.1978
same,Log2(fold change) oxaloacetate,[3]; metabolite oxaloacetate,-0.2404
same,Log2(fold change) p-aminobenzoate,[3]; metabolite p-aminobenzoate,0.0000
same,Log2(fold change) p-hydroxybenzoate,[3]; metabolite p-hydroxybenzoate,0.0000
same,Log2(fold change) pantothenate,[3]; metabolite pantothenate,-0.0579
same,Log2(fold change) phenylalanine,[3]; metabolite phenylalanine,-0.1115
same,Log2(fold change) phenylpyruvate,[3]; metabolite phenylpyruvate,0.0000
same,Log2(fold change) phosphoenolpyruvate,[3]; metabolite phosphoenolpyruvate,0.0011
same,Log2(fold change) prephenate,[3]; metabolite prephenate,-0.0728
same,Log2(fold change) proline,[3]; metabolite proline,-0.1132
same,Log2(fold change) pyridoxine,[3]; metabolite pyridoxine,0.1122
same,Log2(fold change) pyruvate,[3]; metabolite pyruvate,-0.1845
same,Log2(fold change) riboflavin,[3]; metabolite riboflavin,0.2197
same,Log2(fold change) ribose,[3]; metabolite ribose,-0.0488
same,Log2(fold change) ribose-phosphate,[3]; metabolite ribose-phosphate,-0.3090
same,Log2(fold change) ribulose-5-phosphate,[3]; metabolite ribulose-5-phosphate,-0.1779
same,Log2(fold change) serine,[3]; metabolite serine,-0.0132
same,Log2(fold change) sn-glycerol-3-phosphate,[3]; metabolite sn-glycerol-3-phosphate,-0.0322
same,Log2(fold change) succinate/Methylmalonic acid,[3]; metabolite succinate/Methylmalonic acid,0.0214
same,Log2(fold change) succinyl-CoA/methylmalonyl-CoA,[3]; metabolite succinyl-CoA/methylmalonyl-CoA,0.0000
same,Log2(fold change) taurine,[3]; metabolite taurine,-0.5626
same,Log2(fold change) thiamine,[3]; metabolite thiamine,-0.2223
same,Log2(fold change) threonine/homoserine,[3]; metabolite threonine/homoserine,-0.0861
same,Log2(fold change) thymidine,[3]; metabolite thymidine,0.0000
same,Log2(fold changes) thymine,"[3]; metabolite thymine, log2 fold change",0.0000
same,Log2(fold changes) trehalose-6-Phosphate,"[3]; metabolite trehalose-6-Phosphate, log2 fold change",0.0000
same,Log2(fold changes) tryptophan,"[3]; metabolite tryptophan, log2 fold change",-0.3649
same,Log2(fold changes) tyrosine,"[3]; metabolite tyrosine, log2 fold change",-0.0724
same,Log2(fold changes) uridine,"[3]; metabolite uridine, log2 fold change",0.0000
